Experimental findings from US8492401B2, “Thiazolopyridine sirtuin modulating compounds” (Sirtris Pharmaceuticals, priority 2008, dated 2013) are described below.

The target of this test is T1, SIRT1 (Homo sapiens, UniProt Q96EB6).
T1 sequence (Q96EB6 1-747): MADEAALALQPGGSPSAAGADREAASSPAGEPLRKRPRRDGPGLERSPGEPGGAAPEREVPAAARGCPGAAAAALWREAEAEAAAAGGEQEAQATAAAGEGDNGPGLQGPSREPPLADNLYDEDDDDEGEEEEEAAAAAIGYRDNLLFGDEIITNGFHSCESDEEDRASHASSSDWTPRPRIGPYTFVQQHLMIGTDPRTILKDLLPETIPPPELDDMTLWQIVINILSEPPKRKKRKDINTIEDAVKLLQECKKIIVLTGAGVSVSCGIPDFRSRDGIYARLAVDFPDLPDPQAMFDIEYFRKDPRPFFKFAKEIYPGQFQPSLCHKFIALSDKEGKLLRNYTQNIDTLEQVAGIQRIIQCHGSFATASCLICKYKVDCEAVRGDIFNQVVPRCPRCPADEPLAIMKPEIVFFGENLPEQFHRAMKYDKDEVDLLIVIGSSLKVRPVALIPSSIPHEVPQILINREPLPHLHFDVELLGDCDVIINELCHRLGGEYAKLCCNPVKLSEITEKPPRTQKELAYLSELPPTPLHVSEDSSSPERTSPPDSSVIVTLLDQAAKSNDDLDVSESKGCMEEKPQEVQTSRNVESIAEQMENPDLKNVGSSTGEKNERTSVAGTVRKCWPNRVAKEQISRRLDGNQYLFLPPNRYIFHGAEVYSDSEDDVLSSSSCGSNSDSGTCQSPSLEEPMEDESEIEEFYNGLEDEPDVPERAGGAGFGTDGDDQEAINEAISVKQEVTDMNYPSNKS
Put plainly: Mass spectrometry based assay to identify modulators (activators) of SIRT1 activity. The class given is biochemical. The conditions noted are these: 0.5 μM peptide substrate, 120 μM βNAD+, 10 nM SIRT1, 25 minutes at 25° C.; for EC1.5: SIRT1 activation. The source says:
A mass spectrometry based assay was used to identify modulators of SIRT1 activity. The mass spectrometry based assay utilizes a peptide having 20 amino acid residues as follows: Ac-EE-K(biotin)-GQSTSSHSK(Ac)NleSTEG-K(5TMR)-EE-NH2 (SEQ ID NO: 1) wherein K(Ac) is an acetylated lysine residue and Nle is a norleucine. The peptide is labeled with the fluorophore 5TMR (excitation 540 nm/emission 580 nm) at the C-terminus. The sequence of the peptide substrate is based on p53 with several modifications. In addition, the methionine residue naturally present in the sequence was replaced with the norleucine because the methionine may be susceptible to oxidation during synthesis and purification.
The mass spectrometry assay is conducted as follows: 0.5 μM peptide substrate and 120 μM βNAD^+ is incubated with 10 nM SIRT1 for 25 minutes at 25° C. in a reaction buffer (50 mM Tris-acetate pH 8, 137 mM NaCl, 2.7 mM KCl, 1 mM MgCl2, 5 mM DTT, 0.05% BSA). Test compounds may be added to the reaction as described above. […] After the 25 minute incubation with SIRT1, 10 μL of 10% formic acid is added to stop the reaction. Reactions are sealed and frozen for later mass spec analysis. Determination of the mass of the substrate peptide allows for precise determination of the degree of acetylation (i.e. starting material) as compared to deacetylated peptide (product).
A control for inhibition of sirtuin activity is conducted by adding 1 μL of 500 mM nicotinamide as a negative control at the start of the reaction (e.g., permits determination of maximum sirtuin inhibition). A control for activation of sirtuin activity is conducted using 10 nM of sirtuin protein, with 1 μL of DMSO in place of compound, to determine the amount of deacetylation of the substrate at a given timepoint within the linear range of the assay. This timepoint is the same as that used for test compounds and, within the linear range, the endpoint represents a change in velocity.
For the above assay, SIRT1 protein was expressed and purified as follows. […] The protein was expressed by induction with 1 mM IPTG as an N-terminal His-tag fusion protein at 18° C. overnight and harvested at 30,000×g. Cells were lysed with lysozyme in lysis buffer (50 mM Tris-HCl, 2 mM Tris[2-carboxyethyl]phosphine (TCEP), 10 μM ZnCl2, 200 mM NaCl) and further treated with sonication for 10 min for complete lysis. The protein was purified over a Ni-NTA column (Amersham) and fractions containing pure protein were pooled, concentrated and run over a sizing column (Sephadex S200 26/60 global). The peak containing soluble protein was collected and run on an Ion-exchange column (MonoQ). Gradient elution (200 mM-500 mM NaCl) yielded pure protein. This protein was concentrated and dialyzed against dialysis buffer (20 mM Tris-HCl, 2 mM TCEP) overnight. The protein was aliquoted and frozen at −80° C. until further use.
Sirtuin modulating compounds that activated SIRT1 were identified using the assay described above and are shown below in Table 1. The EC1.5 values for the activating compounds are represented by A (EC1.5≦1 uM), B (EC1.5>1 and ≦10 uM), or C (EC1.5>10 uM). The percent maximum fold activation is represented by A (Fold activation≧300%), B (Fold Activation≧150% and <300%), or C (Fold Activation<150%).

For `COCCN1CCN(Cc2cnc3sc(-c4ccccc4NC(=O)c4nc(-c5ccccc5)oc4C(F)(F)F)nc3c2)CC1` [Compound 14, N-(2-(6-((4-(2-methoxyethyl)piperazin-1-yl)methyl)thiazolo[5,4-b]pyridin-2-yl)phenyl)-2-phenyl-5-(trifluoromethyl)oxazole-4-carboxamide], the “FOLD ACT. (percent maximum fold activation)” value was “B (Fold Activation≧150% and <300%)”; the EC1.5 result is “A (EC1.5≦1 uM)”.
On to `COCC#Cc1sc(-c2ccccc2)nc1C(=O)Nc1ccccc1-c1nc2cc(CN3CCCC3)cnc2s1` [Compound 5, 5-(3-methoxyprop-1-ynyl)-2-phenyl-N-(2-(6-(pyrrolidin-1-ylmethyl)thiazolo[5,4-b]pyridin-2-yl)phenyl)thiazole-4-carboxamide], for which the “FOLD ACT. (percent maximum fold activation)” value was “B (Fold Activation≧150% and <300%)”; the EC1.5 entry is reported as “A (EC1.5≦1 uM)”.
In the case of `COCCN1CCN(Cc2oc(-c3ccccc3)nc2C(=O)Nc2ccccc2-c2nc3cccnc3s2)CC1` [Compound 19, 5-((4-(2-methoxyethyl)piperazin-1-yl)methyl)-2-phenyl-N-(2-(thiazolo[5,4-b]pyridin-2-yl)phenyl)oxazole-4-carboxamide], the “FOLD ACT. (percent maximum fold activation)” value is recorded as “C (Fold Activation<150%)” and the EC1.5 result is “C (EC1.5>10 uM)”.
As for `COCCN1CCN(CCCc2sc(-c3ccccc3)nc2C(=O)Nc2ccccc2-c2nc3cccnc3s2)CC1` [Compound 7, 5-(3-(4-(2-methoxyethyl)piperazin-1-yl)propyl)-2-phenyl-N-(2-(thiazolo[5,4-b]pyridin-2-yl)phenyl)thiazole-4-carboxamide], the “FOLD ACT. (percent maximum fold activation)” value was “B (Fold Activation≧150% and <300%)”; the EC1.5 entry was “A (EC1.5≦1 uM)”.
In the case of `CC(C)(C)OC(=O)N1CCN(Cc2oc(-c3ccccc3)nc2C(=O)Nc2ccccc2-c2nc3cccnc3s2)CC1` [Compound 21, tert-butyl 4-((2-phenyl-4-(2-(thiazolo[5,4-b]pyridin-2-yl)phenylcarbamoyl)oxazol-5-yl)methyl)piperazine-1-carboxylate], the “FOLD ACT. (percent maximum fold activation)” value is on record as “C (Fold Activation<150%)” and the EC1.5 result is listed as “C (EC1.5>10 uM)”.
Take `Cc1oc(-c2ccccc2)nc1C(=O)Nc1ccccc1-c1nc2cc(CN3CCCC3)cnc2s1` [Compound 17, 5-methyl-2-phenyl-N-(2-(6-(pyrrolidin-1-ylmethyl)thiazolo[5,4-b]pyridin-2-yl)phenyl)oxazole-4-carboxamide]: the “FOLD ACT. (percent maximum fold activation)” value is recorded as “A (Fold activation≧300%)”; the EC1.5 result was “B (EC1.5>1 and ≦10 uM)”.
With `COCCCc1sc(-c2ccccc2)nc1C(=O)Nc1ccccc1-c1nc2cccnc2s1` [Compound 6, 5-(3-methoxypropyl)-2-phenyl-N-(2-(thiazolo[5,4-b]pyridin-2-yl)phenyl)thiazole-4-carboxamide], the “FOLD ACT. (percent maximum fold activation)” value was “B (Fold Activation≧150% and <300%)”; the EC1.5 entry was “B (EC1.5>1 and ≦10 uM)”.
Consider `O=C(Nc1ccccc1-c1nc2cc(CN3CCOCC3)cnc2s1)c1csc(-c2ccccc2)n1` [Compound 2, N-(2-(6-(morpholinomethyl)thiazolo[5,4-b]pyridin-2-yl)phenyl)-2-phenylthiazole-4-carboxamide], for which the “FOLD ACT. (percent maximum fold activation)” value is recorded as “A (Fold activation≧300%)” and the EC1.5 entry was “A (EC1.5≦1 uM)”.
